Among the targets are Histamine H2 receptor (Mus musculus, UniProt P97292); D(1A) dopamine receptor (Homo sapiens, UniProt P21728); D(2) dopamine receptor (Homo sapiens, UniProt P14416).
In assay [1] the target is Beta-2 adrenergic receptor (Mus musculus, UniProt P18762).
Assay [2] addresses 5-hydroxytryptamine receptor 7 (Rattus norvegicus, UniProt P32305).
Assay [3] concerns the target 5-hydroxytryptamine receptor 7 (Homo sapiens, UniProt P34969).
Assay [4] concerns the target T1, Solute carrier family 22 member 1 (Rattus norvegicus, UniProt Q63089).
T1 sequence (Q63089 whole entry): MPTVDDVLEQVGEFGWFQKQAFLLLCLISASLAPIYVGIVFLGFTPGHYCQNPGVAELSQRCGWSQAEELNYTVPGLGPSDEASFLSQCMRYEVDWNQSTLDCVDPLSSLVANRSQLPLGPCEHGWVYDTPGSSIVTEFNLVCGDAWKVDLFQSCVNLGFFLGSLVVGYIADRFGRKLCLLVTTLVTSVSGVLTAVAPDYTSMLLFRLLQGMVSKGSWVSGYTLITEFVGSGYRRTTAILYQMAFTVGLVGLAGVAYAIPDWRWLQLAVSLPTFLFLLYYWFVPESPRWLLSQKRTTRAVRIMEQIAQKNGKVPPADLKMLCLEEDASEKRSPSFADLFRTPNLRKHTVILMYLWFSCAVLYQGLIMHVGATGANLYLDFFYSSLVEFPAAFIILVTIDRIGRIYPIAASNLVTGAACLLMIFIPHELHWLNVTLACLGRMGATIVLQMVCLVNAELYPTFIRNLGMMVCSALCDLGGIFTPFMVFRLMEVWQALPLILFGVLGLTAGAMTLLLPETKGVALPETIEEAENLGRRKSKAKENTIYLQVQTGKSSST

Assay [5] addresses T2, 5-hydroxytryptamine receptor 3A (Rattus norvegicus, UniProt P35563).
T2 sequence (P35563 whole entry): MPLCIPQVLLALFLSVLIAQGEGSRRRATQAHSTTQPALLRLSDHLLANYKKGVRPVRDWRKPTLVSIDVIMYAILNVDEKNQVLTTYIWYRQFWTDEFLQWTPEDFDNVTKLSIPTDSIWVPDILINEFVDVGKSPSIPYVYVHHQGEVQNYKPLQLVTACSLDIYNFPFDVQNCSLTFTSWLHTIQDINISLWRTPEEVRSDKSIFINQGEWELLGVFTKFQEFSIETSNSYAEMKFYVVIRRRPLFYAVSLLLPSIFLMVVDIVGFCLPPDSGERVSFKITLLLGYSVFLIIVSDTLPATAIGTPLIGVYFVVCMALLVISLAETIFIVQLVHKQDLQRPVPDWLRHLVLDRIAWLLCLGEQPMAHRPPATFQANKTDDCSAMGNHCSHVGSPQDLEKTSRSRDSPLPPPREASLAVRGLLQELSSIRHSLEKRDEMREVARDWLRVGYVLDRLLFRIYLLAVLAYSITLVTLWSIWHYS

In assay [6] the target is T3, 5-hydroxytryptamine receptor 2C (Rattus norvegicus, UniProt P08909).
T3 sequence (P08909 whole entry): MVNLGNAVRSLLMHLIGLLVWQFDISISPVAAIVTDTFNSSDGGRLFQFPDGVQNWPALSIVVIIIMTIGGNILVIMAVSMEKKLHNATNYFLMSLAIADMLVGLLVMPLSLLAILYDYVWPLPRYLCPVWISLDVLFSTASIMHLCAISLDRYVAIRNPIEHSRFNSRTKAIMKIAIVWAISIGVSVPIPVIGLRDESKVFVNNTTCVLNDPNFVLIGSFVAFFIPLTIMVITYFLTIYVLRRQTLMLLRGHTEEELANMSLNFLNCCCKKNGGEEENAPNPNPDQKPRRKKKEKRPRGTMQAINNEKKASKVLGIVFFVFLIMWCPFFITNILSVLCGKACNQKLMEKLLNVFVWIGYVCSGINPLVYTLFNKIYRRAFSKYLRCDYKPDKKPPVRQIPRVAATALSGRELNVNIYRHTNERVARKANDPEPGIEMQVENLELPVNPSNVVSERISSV

The target in assay [7] is 5-hydroxytryptamine receptor 1D (Homo sapiens, UniProt P28221).
For assay [8], the target named is T4, 5-hydroxytryptamine receptor 2C (Homo sapiens, UniProt P28335).
T4 sequence (P28335 whole entry): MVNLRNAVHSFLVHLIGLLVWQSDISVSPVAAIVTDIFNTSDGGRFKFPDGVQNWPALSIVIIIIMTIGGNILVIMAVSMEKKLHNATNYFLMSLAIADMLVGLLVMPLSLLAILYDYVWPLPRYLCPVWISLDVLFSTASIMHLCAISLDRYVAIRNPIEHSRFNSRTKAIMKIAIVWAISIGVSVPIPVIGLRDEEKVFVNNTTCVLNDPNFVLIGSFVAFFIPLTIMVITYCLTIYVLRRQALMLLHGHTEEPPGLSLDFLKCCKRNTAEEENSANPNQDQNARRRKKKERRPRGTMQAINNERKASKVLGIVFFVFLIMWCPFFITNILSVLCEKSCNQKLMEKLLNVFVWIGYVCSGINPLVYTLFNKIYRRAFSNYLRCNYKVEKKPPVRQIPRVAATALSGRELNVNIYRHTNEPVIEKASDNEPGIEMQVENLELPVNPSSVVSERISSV

The target of assay [9] is T5, Adrenergic alpha2 receptor (Mesocricetus auratus, UniProt Q60533).
T5 sequence (Q60533 whole entry): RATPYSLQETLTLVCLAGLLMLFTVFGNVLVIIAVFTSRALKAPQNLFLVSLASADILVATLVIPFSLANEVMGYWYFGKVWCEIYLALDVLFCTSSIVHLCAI

The next assay addresses T6, D(4) dopamine receptor (Homo sapiens, UniProt P21917).
T6 sequence (P21917 whole entry): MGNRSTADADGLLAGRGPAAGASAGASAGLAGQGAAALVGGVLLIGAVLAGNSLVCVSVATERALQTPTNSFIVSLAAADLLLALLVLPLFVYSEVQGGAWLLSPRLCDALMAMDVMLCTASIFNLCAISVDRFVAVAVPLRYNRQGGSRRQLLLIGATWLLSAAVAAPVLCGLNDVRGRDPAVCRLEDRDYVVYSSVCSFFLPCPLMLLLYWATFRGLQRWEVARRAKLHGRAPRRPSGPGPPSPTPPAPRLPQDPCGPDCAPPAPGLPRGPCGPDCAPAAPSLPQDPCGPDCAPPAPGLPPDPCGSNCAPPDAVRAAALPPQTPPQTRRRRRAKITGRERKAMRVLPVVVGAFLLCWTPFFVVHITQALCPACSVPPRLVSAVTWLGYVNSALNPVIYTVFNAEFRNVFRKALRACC

Assay [10] deals with 5-hydroxytryptamine receptor 1E (Homo sapiens, UniProt P28566).
The target of assay [11] is 5-hydroxytryptamine receptor 1B (Homo sapiens, UniProt P28222).
In assay [12] the target is 5-hydroxytryptamine receptor 4 (Rattus norvegicus, UniProt Q62758).
Assay [13] addresses 5-hydroxytryptamine receptor 2A (Rattus norvegicus, UniProt P14842).
The target in assay [14] is Beta-1 adrenergic receptor (Homo sapiens, UniProt P08588).
In assay [15] the target is T7, 5-hydroxytryptamine receptor 1F (Homo sapiens, UniProt P30939).
T7 sequence (P30939 whole entry): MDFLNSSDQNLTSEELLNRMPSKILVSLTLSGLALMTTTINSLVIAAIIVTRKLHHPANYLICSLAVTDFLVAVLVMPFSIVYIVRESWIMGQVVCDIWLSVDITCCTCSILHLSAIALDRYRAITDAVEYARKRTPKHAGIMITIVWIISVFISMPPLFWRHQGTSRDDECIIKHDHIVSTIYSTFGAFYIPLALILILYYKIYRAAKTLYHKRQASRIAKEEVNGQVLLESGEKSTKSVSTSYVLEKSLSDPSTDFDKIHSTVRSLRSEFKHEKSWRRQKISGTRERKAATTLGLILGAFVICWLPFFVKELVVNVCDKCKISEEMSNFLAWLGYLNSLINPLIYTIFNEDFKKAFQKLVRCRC

Sequence of Beta-1 adrenergic receptor (P08588 whole entry): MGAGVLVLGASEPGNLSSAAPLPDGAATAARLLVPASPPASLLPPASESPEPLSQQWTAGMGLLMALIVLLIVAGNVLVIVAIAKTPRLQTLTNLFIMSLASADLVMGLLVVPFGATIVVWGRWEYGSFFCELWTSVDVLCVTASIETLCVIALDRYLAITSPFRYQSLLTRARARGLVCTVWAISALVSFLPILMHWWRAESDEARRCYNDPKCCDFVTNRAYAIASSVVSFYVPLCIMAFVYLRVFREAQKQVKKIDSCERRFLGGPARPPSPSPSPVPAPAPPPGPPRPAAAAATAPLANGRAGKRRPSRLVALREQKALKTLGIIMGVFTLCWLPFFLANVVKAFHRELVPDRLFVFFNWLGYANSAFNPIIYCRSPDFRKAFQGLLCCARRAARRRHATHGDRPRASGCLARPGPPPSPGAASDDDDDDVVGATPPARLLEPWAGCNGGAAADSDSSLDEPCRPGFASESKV
Sequence of Beta-2 adrenergic receptor (P18762 whole entry): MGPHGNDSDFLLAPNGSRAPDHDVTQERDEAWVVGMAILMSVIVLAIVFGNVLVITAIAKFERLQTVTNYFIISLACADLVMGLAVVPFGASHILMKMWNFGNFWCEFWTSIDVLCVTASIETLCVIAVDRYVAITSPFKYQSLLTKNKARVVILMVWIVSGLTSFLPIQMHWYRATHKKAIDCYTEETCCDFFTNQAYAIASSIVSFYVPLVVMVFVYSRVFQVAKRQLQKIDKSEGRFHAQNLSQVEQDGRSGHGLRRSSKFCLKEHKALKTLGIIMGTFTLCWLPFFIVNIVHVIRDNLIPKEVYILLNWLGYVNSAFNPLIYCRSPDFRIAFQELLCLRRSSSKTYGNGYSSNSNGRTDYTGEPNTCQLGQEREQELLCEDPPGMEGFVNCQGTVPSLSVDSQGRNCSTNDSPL
Sequence of 5-hydroxytryptamine receptor 1B (P28222 whole entry): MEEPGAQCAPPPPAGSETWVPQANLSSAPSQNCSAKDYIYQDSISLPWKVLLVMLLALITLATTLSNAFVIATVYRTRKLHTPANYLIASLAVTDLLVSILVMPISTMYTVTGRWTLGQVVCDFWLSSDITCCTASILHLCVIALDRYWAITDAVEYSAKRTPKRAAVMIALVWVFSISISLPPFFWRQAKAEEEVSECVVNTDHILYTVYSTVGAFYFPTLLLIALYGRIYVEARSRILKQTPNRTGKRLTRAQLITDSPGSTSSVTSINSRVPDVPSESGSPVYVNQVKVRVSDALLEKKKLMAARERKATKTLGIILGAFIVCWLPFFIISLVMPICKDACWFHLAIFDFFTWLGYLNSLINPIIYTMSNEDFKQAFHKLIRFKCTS
Sequence of Histamine H2 receptor (P97292 whole entry): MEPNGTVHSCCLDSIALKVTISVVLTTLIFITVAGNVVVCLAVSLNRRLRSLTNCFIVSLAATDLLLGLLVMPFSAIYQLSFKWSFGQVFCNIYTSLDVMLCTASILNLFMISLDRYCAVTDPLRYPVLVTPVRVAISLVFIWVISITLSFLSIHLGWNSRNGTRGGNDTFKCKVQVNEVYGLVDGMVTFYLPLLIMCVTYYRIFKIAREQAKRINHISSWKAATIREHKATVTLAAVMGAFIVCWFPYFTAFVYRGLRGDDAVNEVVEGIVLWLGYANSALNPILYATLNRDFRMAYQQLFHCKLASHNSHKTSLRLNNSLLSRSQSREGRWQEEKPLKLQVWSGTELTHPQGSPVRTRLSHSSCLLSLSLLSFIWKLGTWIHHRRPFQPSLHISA
Sequence of 5-hydroxytryptamine receptor 1D (P28221 whole entry): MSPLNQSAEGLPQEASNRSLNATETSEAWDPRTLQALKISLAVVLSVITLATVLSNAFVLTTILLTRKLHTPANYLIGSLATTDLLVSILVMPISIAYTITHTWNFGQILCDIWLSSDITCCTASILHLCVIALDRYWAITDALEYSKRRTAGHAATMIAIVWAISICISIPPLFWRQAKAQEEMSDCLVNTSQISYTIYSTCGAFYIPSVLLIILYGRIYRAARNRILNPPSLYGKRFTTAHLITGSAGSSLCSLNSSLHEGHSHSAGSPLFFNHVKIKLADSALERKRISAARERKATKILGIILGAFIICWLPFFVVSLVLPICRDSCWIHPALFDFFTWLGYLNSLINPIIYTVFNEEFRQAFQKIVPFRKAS
Sequence of D(2) dopamine receptor (P14416 whole entry): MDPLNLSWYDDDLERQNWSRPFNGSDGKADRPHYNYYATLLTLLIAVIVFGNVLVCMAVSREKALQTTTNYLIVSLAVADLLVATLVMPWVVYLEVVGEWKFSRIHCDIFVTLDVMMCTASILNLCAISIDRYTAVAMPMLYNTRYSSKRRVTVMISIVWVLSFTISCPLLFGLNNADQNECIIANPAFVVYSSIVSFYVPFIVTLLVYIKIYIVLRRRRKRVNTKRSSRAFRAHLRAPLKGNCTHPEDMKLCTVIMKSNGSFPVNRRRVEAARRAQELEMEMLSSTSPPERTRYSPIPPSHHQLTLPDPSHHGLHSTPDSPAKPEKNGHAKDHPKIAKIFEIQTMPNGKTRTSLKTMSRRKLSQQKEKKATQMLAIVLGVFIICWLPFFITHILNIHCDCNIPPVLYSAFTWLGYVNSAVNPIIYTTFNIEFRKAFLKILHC
Sequence of 5-hydroxytryptamine receptor 1E (P28566 whole entry): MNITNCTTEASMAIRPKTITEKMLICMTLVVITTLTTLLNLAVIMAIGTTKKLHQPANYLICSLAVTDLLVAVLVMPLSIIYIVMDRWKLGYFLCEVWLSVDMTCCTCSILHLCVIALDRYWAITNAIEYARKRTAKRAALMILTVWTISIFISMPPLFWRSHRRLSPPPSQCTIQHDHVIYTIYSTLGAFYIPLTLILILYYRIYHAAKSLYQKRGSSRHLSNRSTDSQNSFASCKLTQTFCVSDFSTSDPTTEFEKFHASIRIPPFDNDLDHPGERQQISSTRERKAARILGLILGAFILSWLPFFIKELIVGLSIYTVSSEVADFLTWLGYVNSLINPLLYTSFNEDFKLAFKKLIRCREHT
Sequence of 5-hydroxytryptamine receptor 2A (P14842 whole entry): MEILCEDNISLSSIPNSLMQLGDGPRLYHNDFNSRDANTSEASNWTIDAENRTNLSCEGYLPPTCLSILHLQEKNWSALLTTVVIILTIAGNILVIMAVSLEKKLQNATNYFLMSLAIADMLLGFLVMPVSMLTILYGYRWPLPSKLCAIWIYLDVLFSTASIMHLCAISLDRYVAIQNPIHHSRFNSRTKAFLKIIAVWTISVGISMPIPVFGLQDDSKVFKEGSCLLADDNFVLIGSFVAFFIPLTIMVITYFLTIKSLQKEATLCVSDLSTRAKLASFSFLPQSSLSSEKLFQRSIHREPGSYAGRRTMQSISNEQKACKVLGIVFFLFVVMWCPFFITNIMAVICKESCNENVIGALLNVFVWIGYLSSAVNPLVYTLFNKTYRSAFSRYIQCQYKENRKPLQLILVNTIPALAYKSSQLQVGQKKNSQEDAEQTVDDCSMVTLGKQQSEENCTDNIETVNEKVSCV
Sequence of 5-hydroxytryptamine receptor 7 (Rattus norvegicus, UniProt P32305) (P32305 whole entry): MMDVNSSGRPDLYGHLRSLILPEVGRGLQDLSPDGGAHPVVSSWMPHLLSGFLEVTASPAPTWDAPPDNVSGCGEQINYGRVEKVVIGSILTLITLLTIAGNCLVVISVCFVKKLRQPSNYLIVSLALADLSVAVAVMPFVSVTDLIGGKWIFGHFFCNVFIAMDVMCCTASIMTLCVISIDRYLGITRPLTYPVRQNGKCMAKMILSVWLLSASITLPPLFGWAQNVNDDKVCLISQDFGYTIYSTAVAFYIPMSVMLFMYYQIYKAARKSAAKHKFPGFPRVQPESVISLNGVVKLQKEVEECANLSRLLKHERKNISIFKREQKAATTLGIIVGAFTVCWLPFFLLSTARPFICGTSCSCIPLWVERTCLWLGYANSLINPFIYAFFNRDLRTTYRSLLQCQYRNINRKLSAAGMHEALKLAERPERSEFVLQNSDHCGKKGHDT
Sequence of 5-hydroxytryptamine receptor 4 (Q62758 whole entry): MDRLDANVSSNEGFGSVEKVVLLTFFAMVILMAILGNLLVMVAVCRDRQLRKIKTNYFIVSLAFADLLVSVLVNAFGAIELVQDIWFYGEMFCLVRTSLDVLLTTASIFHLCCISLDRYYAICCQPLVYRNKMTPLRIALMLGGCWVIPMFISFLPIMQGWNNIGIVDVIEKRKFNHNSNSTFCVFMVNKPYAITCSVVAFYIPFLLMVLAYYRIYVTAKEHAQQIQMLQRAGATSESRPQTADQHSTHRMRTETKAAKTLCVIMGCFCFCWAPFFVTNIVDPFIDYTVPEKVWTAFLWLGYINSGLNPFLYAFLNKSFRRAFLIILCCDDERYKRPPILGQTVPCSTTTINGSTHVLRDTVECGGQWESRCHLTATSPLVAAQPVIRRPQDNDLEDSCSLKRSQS
Sequence of D(1A) dopamine receptor (P21728 whole entry): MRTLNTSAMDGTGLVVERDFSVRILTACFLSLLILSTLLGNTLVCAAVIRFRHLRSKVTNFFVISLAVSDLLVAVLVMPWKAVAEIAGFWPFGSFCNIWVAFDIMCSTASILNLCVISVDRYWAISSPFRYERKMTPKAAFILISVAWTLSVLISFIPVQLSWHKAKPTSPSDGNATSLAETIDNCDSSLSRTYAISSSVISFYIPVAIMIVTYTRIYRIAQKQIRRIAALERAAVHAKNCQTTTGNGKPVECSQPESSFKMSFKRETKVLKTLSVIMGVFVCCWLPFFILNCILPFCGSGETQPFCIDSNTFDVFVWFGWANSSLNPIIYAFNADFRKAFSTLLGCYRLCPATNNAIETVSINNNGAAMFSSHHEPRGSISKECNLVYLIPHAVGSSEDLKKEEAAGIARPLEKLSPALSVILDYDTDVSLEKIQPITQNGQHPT

Turning to `CC(N)Cc1c[nH]c2ccc(OCc3cccs3)cc12` (centres undefined) [NSC_5311036], the inhibition constant Ki in [1] is > 10 µM; in [2], 1 µM; in assay [3], 3.16 µM; in assay [4], > 10 µM; in assay [5], 0.316 µM; in assay [6] it was 0.126 µM. Moreover, the Ki in assay [7] was 0.631 µM; in assay [8], 0.501 µM; at Histamine H2 receptor it was > 10 µM; in [9] it was > 10 µM; at D(4) dopamine receptor it was > 10 µM; in assay [10], 3.16 µM. Besides, the inhibitory constant (Ki) at D(1A) dopamine receptor is > 10 µM; at D(2) dopamine receptor, > 10 µM; in assay [11], 0.126 µM; in assay [12] it was > 10 µM; in assay [13] it was 0.251 µM; in assay [14], > 10 µM. Further, the inhibition constant (Ki) in [15] was found to be 7.94 µM.

These data come from BindingDB's records for doi:10.1111/j.1476-5381.1996.tb15304.x (Smithkline Beecham Pharmaceuticals, 1996).
